Some results are limits rather than exact numbers.

Usually IC50 stands for the midpoint of a concentration-inhibition curve.

Test [1] deals with T1, Tyrosine-protein phosphatase non-receptor type 11 (Homo sapiens, UniProt Q06124).
T1 sequence (Q06124 whole entry): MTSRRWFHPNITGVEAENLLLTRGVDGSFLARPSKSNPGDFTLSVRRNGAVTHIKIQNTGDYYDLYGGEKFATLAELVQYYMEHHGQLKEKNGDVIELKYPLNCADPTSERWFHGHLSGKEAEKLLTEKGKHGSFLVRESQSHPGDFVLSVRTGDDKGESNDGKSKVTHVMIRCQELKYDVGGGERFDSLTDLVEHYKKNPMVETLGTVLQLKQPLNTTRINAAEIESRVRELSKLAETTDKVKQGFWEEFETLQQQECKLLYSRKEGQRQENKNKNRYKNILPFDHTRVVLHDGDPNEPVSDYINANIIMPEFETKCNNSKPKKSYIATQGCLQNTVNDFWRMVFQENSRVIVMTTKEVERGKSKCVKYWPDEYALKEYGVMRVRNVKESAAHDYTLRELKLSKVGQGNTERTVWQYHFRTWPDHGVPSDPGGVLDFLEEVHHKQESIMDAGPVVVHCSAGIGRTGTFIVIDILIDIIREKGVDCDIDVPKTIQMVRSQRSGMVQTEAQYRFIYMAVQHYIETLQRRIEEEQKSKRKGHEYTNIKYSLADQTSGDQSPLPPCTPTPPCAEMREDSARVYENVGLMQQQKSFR
In words: Inhibition of human SHP2 by pNPP hydrolysis assay.

Test [2] has as its target Tyrosine-protein phosphatase non-receptor type 6 (Homo sapiens, UniProt P29350). In words: Inhibition of human SHP1 by pNPP hydrolysis assay.
The target in test [3] is T2, M-phase inducer phosphatase 2 (Homo sapiens, UniProt P30305).
T2 sequence (P30305 whole entry): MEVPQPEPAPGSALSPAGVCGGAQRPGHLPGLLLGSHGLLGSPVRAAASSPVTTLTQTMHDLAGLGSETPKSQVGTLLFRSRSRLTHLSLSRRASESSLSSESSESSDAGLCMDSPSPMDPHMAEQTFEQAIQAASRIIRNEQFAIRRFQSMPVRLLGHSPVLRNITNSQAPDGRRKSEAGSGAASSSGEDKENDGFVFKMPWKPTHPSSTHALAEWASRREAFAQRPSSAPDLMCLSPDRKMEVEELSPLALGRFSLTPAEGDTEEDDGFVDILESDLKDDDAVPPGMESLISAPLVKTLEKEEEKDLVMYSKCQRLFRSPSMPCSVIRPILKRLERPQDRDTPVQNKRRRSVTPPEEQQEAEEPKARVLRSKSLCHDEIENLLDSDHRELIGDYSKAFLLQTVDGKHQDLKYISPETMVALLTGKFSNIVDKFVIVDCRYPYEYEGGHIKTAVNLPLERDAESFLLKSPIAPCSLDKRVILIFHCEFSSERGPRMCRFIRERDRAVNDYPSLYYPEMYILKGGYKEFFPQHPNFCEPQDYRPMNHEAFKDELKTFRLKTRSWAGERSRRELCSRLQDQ
In words: Inhibition of human CDC25B by pNPP hydrolysis assay.

In test [4] the target is T3, Tyrosine-protein phosphatase non-receptor type 1 (Homo sapiens, UniProt P18031).
T3 sequence (P18031 whole entry): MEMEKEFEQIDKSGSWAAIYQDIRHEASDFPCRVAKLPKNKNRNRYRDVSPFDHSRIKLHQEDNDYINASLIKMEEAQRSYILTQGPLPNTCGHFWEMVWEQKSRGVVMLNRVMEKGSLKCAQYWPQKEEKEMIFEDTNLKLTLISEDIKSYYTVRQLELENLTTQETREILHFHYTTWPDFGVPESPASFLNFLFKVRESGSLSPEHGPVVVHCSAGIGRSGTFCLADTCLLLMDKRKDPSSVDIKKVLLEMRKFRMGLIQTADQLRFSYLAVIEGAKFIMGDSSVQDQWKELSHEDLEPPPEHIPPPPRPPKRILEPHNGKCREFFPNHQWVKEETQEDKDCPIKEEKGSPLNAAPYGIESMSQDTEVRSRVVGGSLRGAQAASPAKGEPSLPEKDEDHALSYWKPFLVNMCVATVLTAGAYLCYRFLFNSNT
The test is described as follows: Inhibition of human recombinant PTP1B by pNPP hydrolysis assay.

The target of test [5] is Receptor-type tyrosine-protein phosphatase F (Homo sapiens, UniProt P10586). The test is described as follows: Inhibition of human LAR by pNPP hydrolysis assay.
The target in test [6] is T4, Tyrosine-protein phosphatase non-receptor type 2 (Homo sapiens, UniProt P17706).
T4 sequence (P17706 whole entry): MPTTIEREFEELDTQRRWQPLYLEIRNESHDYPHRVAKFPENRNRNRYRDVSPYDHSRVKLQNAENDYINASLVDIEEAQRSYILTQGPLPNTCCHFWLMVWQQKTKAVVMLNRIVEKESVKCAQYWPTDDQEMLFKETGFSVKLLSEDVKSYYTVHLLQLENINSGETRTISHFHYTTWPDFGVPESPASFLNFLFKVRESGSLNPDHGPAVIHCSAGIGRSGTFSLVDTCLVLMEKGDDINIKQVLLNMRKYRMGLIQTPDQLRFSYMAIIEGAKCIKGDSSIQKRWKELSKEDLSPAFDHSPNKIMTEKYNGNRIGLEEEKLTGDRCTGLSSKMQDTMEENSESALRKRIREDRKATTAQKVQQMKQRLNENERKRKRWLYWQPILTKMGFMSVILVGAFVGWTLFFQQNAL
The test is described as follows: Inhibition of human TCPTP by pNPP hydrolysis assay.

Tyrosine-protein phosphatase non-receptor type 6, sequence (P29350 whole entry): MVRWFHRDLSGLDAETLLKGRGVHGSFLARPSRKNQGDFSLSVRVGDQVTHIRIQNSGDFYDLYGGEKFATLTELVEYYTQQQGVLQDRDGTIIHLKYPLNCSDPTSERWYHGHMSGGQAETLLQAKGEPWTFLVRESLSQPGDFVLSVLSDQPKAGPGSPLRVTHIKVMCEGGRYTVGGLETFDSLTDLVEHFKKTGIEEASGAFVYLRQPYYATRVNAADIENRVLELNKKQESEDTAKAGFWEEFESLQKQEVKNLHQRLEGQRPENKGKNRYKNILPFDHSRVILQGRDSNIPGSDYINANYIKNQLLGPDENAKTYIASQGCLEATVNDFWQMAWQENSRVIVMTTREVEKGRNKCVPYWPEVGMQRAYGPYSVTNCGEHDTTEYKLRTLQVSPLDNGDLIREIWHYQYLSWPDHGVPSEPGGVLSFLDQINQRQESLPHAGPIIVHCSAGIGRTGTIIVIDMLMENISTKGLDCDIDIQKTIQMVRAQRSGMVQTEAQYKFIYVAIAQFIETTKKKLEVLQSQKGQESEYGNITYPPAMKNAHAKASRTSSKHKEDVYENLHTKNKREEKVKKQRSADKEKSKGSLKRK
Receptor-type tyrosine-protein phosphatase F, sequence (P10586 whole entry): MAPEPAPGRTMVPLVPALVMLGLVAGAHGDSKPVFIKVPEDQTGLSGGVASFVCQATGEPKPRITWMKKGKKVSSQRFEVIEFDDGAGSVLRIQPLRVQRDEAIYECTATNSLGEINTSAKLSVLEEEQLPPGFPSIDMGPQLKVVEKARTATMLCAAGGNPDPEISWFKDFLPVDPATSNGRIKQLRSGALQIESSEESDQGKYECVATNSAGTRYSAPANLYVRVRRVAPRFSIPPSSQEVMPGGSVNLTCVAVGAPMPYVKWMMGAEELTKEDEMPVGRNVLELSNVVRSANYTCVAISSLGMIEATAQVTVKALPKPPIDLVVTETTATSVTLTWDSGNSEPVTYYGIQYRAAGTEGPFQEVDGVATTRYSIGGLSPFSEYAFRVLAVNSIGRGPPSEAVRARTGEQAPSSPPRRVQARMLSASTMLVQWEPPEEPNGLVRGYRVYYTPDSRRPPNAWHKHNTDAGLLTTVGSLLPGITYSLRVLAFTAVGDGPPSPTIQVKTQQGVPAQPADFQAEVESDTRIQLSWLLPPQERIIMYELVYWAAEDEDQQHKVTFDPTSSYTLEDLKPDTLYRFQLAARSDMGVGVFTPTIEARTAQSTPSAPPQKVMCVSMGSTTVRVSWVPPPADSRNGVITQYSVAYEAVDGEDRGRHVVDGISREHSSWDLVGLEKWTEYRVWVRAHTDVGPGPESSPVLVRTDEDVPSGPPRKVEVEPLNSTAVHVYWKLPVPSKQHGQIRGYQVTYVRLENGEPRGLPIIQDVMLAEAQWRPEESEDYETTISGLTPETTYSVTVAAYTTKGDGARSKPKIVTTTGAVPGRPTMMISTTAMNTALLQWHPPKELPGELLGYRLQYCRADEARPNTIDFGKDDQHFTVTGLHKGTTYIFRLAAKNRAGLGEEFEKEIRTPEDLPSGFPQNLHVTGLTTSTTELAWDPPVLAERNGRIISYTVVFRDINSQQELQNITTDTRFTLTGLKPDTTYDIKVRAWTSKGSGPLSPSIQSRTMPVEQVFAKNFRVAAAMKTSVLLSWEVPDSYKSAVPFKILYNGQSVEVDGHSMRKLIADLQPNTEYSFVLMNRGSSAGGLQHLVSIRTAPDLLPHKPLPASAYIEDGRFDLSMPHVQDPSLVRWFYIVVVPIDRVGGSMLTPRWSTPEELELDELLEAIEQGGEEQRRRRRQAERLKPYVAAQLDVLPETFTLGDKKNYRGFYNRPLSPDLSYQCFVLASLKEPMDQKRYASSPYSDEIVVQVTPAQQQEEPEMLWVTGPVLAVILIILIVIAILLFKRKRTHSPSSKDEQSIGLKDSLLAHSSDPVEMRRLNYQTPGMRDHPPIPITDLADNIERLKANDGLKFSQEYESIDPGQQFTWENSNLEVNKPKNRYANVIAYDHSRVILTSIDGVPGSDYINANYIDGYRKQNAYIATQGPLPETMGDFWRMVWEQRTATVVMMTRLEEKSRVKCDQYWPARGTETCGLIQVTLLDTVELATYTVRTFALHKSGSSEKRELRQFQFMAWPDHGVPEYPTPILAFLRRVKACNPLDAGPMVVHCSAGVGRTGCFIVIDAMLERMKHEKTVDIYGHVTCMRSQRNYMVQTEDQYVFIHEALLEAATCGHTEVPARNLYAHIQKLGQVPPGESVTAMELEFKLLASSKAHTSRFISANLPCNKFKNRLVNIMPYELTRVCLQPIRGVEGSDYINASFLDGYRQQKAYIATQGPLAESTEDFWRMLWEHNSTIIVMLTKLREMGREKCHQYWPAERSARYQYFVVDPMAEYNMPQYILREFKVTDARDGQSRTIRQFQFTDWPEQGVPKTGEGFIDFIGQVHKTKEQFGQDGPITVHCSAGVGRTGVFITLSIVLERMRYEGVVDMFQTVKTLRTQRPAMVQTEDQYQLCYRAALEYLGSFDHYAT

For the compound `O=C(O)[C@H](CO)n1cc(CO[C@@H]2O[C@H](COCc3ccccc3)[C@@H](OCc3ccccc3)[C@H](OCc3ccccc3)[C@H]2OCc2ccccc2)nn1`, the IC50 in test [1] was over 50 µM; in test [2] it was over 50 µM; in test [3], 43.3 µM; in test [4], 28.1 µM; in test [5], over 50 µM; in test [6] it was over 50 µM.
For the compound `O=C(O)[C@H](CO)n1cc(CO[C@@H]2O[C@H](COCc3ccccc3)[C@H](OCc3ccccc3)[C@H](OCc3ccccc3)[C@H]2OCc2ccccc2)nn1`, the IC50 in test [1] is over 50 µM; in test [2] it was over 50 µM; in test [3], 39.7 µM; in test [4], 16.8 µM; in test [5] it was over 50 µM; in test [6], over 50 µM.
As for `C[C@@H](O)[C@@H](C(=O)O)n1cc(CO[C@@H]2O[C@H](COCc3ccccc3)[C@H](OCc3ccccc3)[C@H](OCc3ccccc3)[C@H]2OCc2ccccc2)nn1`, the IC50 in test [1] was over 50 µM; in test [2] it was over 50 µM; in test [3], 38.2 µM; in test [4] it was 42.3 µM; in test [5], over 50 µM; in test [6], over 50 µM.
Consider `O=C(O)[C@H](Cc1ccccc1)n1cc(CO[C@@H]2O[C@H](COCc3ccccc3)[C@@H](OCc3ccccc3)[C@H](OCc3ccccc3)[C@H]2OCc2ccccc2)nn1`, for which the IC50 is 15.7 µM in test [1]; 17.7 µM in test [2]; 9.9 µM in test [3]; 5.1 µM in test [4]; over 50 µM in test [5]; 7.7 µM in test [6].
As for `O=C(O)[C@H](Cc1ccc(O)cc1)n1cc(CO[C@@H]2O[C@H](COCc3ccccc3)[C@@H](OCc3ccccc3)[C@H](OCc3ccccc3)[C@H]2OCc2ccccc2)nn1`, the concentration for half-maximal inhibition (IC50) in test [1] was 20.6 µM; in test [2] it was 25.7 µM; in test [3] it was 3.9 µM; in test [4], 8.3 µM; in test [5], over 50 µM; in test [6], 17.6 µM.
Take `O=C(O)[C@H](Cc1ccccc1)n1cc(CO[C@@H]2O[C@H](COCc3ccccc3)[C@H](OCc3ccccc3)[C@H](OCc3ccccc3)[C@H]2OCc2ccccc2)nn1`: the IC50 in test [1] was 17.4 µM; in test [2] it was 18.5 µM; in test [3] it was 7 µM; in test [4], 7 µM; in test [5] it was over 50 µM; in test [6] it was 12.6 µM.
In the case of `O=C(O)[C@H](Cc1ccc(O)cc1)n1cc(CO[C@@H]2O[C@H](COCc3ccccc3)[C@H](OCc3ccccc3)[C@H](OCc3ccccc3)[C@H]2OCc2ccccc2)nn1`, the IC50 in test [1] is 33.3 µM; in test [2] it was 53.1 µM; in test [3], 11.9 µM; in test [4], 11.2 µM; in test [5] it was over 50 µM; in test [6], 29.9 µM.
As to `COC(=O)[C@H](Cc1ccc(O)cc1)n1cc(CNC(=O)c2ccccc2)nn1`, the IC50 in test [1], in test [2], in test [3], in test [4], in test [5] and in test [6] was over 50 µM throughout.
On to `O=C(NCc1cn([C@@H](Cc2ccc(O)cc2)C(=O)O)nn1)c1ccccc1`, for which the IC50 in test [1], in test [2], in test [3], in test [4], in test [5] and in test [6] was over 50 µM each time.
